What is called IC50 is the concentration that gives 50% inhibition.

A value given as a limit tells only on which side of the number the result lay.

The text below walks through data of patent publication US20250129103A1, “METHODS FOR TREATMENT OF CANCER” (Frontier Medicines Corporation, priority 2022, published 2025).

This experiment has as its target KRAS G12C (GMPPNP-loaded) and cRAF (Ras-binding domain) interaction (Homo sapiens (Human), UniProt P01116, C118S/C51S/C80L/G12C). As to the kind of experiment: Inhibition of KRAS G12C and cRAF binding (AlphaScreen). The following applies: KRAS G12C loaded with GMPPNP, cRaf RBD, 2 hours preincubation; read-out: Raf-1 RBD K-Ras IC50. Here is the method: Compounds were diluted in 100% DMSO and each compound concentration was spotted at 200 nl/well onto low volume, white 384 well plates. […] KRAS G12C was preloaded with the GTP analogue Guanosine 5′-[β,γ-imido]triphosphate (GMPPNP). The KRAS G12C was diluted in 25 mM Hepes, pH 7.4, 150 mM NaCl, 5 mM MgCl2, 0.01% TritonX-100 and 10 μM GMPPNP and added at 10 ul/well to compound-spotted plates resulting in a DMSO concentration of 2%. Plates were incubated for 2 hours. A mixture of RBD and the AlphaScreen streptavidin donor and glutathione acceptor beads diluted in 25 mM Hepes, pH 7.4, 150 mM NaCl, 5 mM MgCl2, 0.01% TritonX-100 and 2% DMSO was then added at 10 ul/well and incubated for 60-90 minutes before the samples were read for emission at 570 nm after excitation of the donor beads at 680 nm. All incubations were performed at room temperature. The final top compound concentration was 50 μM with 1:3 titrations for 10-point dose response curves. […] IC50S were determined using nonlinear regression fit of [inhibitor] vs. response (4 parameters). […]
On the technique in general: Bead proximity is the source of the signal in Alpha formats.

Chain of KRAS G12C (GMPPNP-loaded) and cRAF (Ras-binding domain) interaction (P01116 other isoform, or with tags, fused parts or gaps G12C/C51S/C80L/C118S): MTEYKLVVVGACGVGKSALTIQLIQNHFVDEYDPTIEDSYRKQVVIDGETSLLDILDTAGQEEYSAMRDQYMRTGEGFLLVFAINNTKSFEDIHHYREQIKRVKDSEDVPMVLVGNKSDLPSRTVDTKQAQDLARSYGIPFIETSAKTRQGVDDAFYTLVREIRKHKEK

Turning to `N#CC[C@H]1CN(c2nc(OCC34CCCN3CCC4)nc3c2CCN(c2cccc4cccc(Cl)c24)C3)CCN1C(=O)/C=C/c1cnccn1` [Compound 39], the IC50 is greater than 0.5 µM.

Regarding `Cn1cnc(/C=C/C(=O)N2CCN(c3nc(OC[C@@]45CCCN4C[C@H](F)C5)nc4c(F)c(-c5cccc6cccc(Cl)c56)ncc34)C[C@@H]2CC#N)n1` [Compound 40], the IC50 is greater than 0.5 µM.

For the molecule `CC(F)(F)c1noc(/C=C/C(=O)N2CCN(c3nc(OCC45CCCN4CCC5)nc4c3CCN(c3cccc5cccc(Cl)c35)C4)C[C@@H]2CC#N)n1` [Compound 41], the IC50 was 0.01 to 0.1 µM.

`Cn1cnc(/C=C/C(=O)N2CCN(c3nc(OC[C@@]45CCCN4C[C@H](F)C5)nc4c(F)c(-c5cccc6cccc(Cl)c56)ncc34)C[C@@H]2CC#N)c1` [Compound 42]: the IC50 is greater than 0.5 µM.

As to `Cn1cnc(/C=C/C(=O)N2CCN(c3nc(OC[C@@]45CCCN4C[C@H](F)C5)nc4c3CCN(c3cccc5cccc(Cl)c35)C4)C[C@@H]2CC#N)n1` [Compound 43], the IC50 is greater than 0.5 µM.

As to `Cn1cnc(/C=C/C(=O)N2CCN(c3nc(OC[C@@]45CCCN4C[C@H](F)C5)nc4c3CCN(c3cccc5cccc(Cl)c35)C4)C[C@@H]2CC#N)c1` [Compound 44], the IC50 lay within 0.1 to 0.5 µM.

For `CC1(c2noc(/C=C/C(=O)N3CCN(c4nc(OCC56CCCN5CCC6)nc5c4CCN(c4cccc6cccc(Cl)c46)C5)C[C@@H]3CC#N)n2)CC1` [Compound 45], the IC50 lay within 0.01 to 0.1 µM.

As for `CC1(c2noc(/C=C/C(=O)N3CCN(c4nc(OC[C@@]56CCCN5C[C@H](F)C6)nc5c4CCN(c4cccc6cccc(Cl)c46)C5)C[C@@H]3CC#N)n2)CC1` [Compound 46], the IC50 lay in the range of 0.01 to 0.1 µM.

On to `N#CC[C@H]1CN(c2nc(OC[C@@]34CCCN3C[C@H](F)C4)nc3c(F)c(-c4nc(N)cc5cccc(Cl)c45)ncc23)CCN1C(=O)/C=C/CN1CCOCC1` [Compound 59], for which the IC50 is less than 0.01 µM.

For the molecule `N#CC[C@H]1CN(c2nc(OCC34CCCN3CCC4)nc3c2CCN(c2cccc4cccc(Cl)c24)C3)CCN1C(=O)/C=C/CN1C[C@H]2C[C@@H]1CO2` [Compound 63], the IC50 was less than 0.01 µM.

With `CCc1c(F)ccc2cccc(-c3ncc4c(N5CCN(C(=O)/C=C/c6cc(C)nc(C)n6)[C@@H](CC#N)C5)nc(OC[C@@]56CCCN5C[C@H](F)C6)nc4c3F)c12` [Compound 98, 2-((S)-1-((E)-3-(2,6-dimethylpyrimidin-4-yl)acryloyl)-4-(7-(8-ethyl-7-fluoronaphthalen-1-yl)-8-fluoro-2-(((2R,7aS)-2-fluorotetrahydro-1H-pyrrolizin-7a(5H)-yl)methoxy)pyrido[4,3-d]pyrimidin-4-yl)piperazin-2-yl)acetonitrile], the IC50 is less than 0.01 µM.

Consider `Cc1c(F)ccc2cccc(-c3ncc4c(N5CCN(C(=O)/C=C/CN6[C@@H]7CC[C@H]6COC7)[C@@H](CC#N)C5)nc(OC[C@@]56CCCN5C[C@H](F)C6)nc4c3F)c12` [Compound 106, 2-((S)-1-((E)-4-((1R,5S)-3-oxa-8-azabicyclo[3.2.1]octan-8-yl)but-2-enoyl)-4-(8-fluoro-7-(7-fluoro-8-methylnaphthalen-1-yl)-2-(((2R,7aS)-2-fluorotetrahydro-1H-pyrrolizin-7a(5H)-yl)methoxy)pyrido[4,3-d]pyrimidin-4-yl)piperazin-2-yl)acetonitrile], for which the IC50 was less than 0.01 µM.

As to `CC1(/C=C/C(=O)N2CCN(c3nc(OCC45CCCN4CCC5)nc4c3CCN(c3cccc5cccc(Cl)c35)C4)C[C@@H]2CC#N)COC1` [Compound 116], the half-maximal inhibitory concentration (IC50) was greater than 0.5 µM.

Consider `Cn1nnc(/C=C/C(=O)N2CCN(c3nc(OCC45CCCN4CCC5)nc4c3CCN(c3cccc5cccc(Cl)c35)C4)C[C@@H]2CC#N)n1` [Compound 119], for which the IC50 was greater than 0.5 µM.

For the molecule `CC(C)c1noc(/C=C/C(=O)N2CCN(c3nc(OC[C@@]45CCCN4C[C@H](F)C5)nc4c(F)c(-c5cccc6cccc(Cl)c56)ncc34)C[C@@H]2CC#N)n1` [Compound 121], the IC50 lay in the range of 0.1 to 0.5 µM.

In the case of `CC(C)c1noc(/C=C/C(=O)N2CCN(c3nc(OC[C@@]45CCCN4C[C@H](F)C5)nc4c3CCN(c3cccc5cccc(Cl)c35)C4)C[C@@H]2CC#N)n1` [Compound 125], the IC50 was in the range of 0.01 to 0.1 µM.

Turning to `CC(C)c1noc(/C=C/C(=O)N2CCN(c3nc(OCC45CCCN4CCC5)nc4c(F)c(-c5cccc6ccc(F)c(Cl)c56)ncc34)C[C@@H]2CC#N)n1` [Compound 129], the IC50 was 0.1 to 0.5 µM.

On to `C[C@@H](F)c1noc(/C=C/C(=O)N2CCN(c3nc(OC[C@@]45CCCN4C[C@H](F)C5)nc4c(F)c(-c5cccc6cccc(Cl)c56)ncc34)C[C@@H]2CC#N)n1` [Compound 130], for which the IC50 fell in the range of 0.01 to 0.1 µM.

In the case of `CC(C)c1noc(/C=C/C(=O)N2CCN(c3nc(OC[C@@]45CCCN4C[C@H](F)C5)nc4c(F)c(-c5cccc6ccc(F)c(Cl)c56)ncc34)C[C@@H]2CC#N)n1` [Compound 132], the IC50 was 0.01 to 0.1 µM.

Turning to `CC(C)c1noc(/C=C/C(=O)N2CCN(c3nc(OC[C@]45CCCN4C[C@H](F)C5)nc4c(F)c(-c5cccc6ccc(F)c(Cl)c56)ncc34)C[C@@H]2CC#N)n1` [Compound 133], the IC50 was 0.01 to 0.1 µM.

Consider `CC(C)c1noc(/C=C/C(=O)N2CCN(c3nc(OC[C@@]45CCCN4C[C@H](F)C5)nc4c(F)c(-c5nc(N)cc6cccc(F)c56)ncc34)C[C@@H]2CC#N)n1` [Compound 134], for which the 50% inhibitory concentration (IC50) lay within 0.01 to 0.1 µM.

On to `C[C@H](F)c1noc(/C=C/C(=O)N2CCN(c3nc(OC[C@@]45CCCN4C[C@H](F)C5)nc4c(F)c(-c5cccc6cccc(Cl)c56)ncc34)C[C@@H]2CC#N)n1` [Compound 137], for which the 50% inhibitory concentration (IC50) was 0.01 to 0.1 µM.

Turning to `CC(C)c1noc(/C=C/C(=O)N2CCN(c3nc(OCC45CCCN4CCC5)nc4c3CCN(c3ccccc3C(F)F)C4)C[C@@H]2CC#N)n1` [Compound 144], the 50% inhibitory concentration (IC50) is greater than 0.5 µM.

With `N#CC[C@H]1CN(c2nc(OCC34CCCN3CCC4)nc3c2CCN(c2cccc4cccc(Cl)c24)C3)CCN1C(=O)/C=C/CCN1CCOCC1` [Compound 153], the half-maximal inhibitory concentration (IC50) fell in the range of 0.01 to 0.1 µM.

Turning to `N#CC[C@H]1CN(c2nc(OCC34CCCN3CCC4)nc3c2CCN(c2cccc4cccc(Cl)c24)C3)CCN1C(=O)/C=C/CN1CCOC2CC21` (some centres unmarked) [Compound 164], the IC50 lay in the range of 0.01 to 0.1 µM.

As for `N#CC[C@H]1CN(c2nc(OCC34CCCN3CCC4)nc3c2CCN(c2cccc4cccc(Cl)c24)C3)CCN1C(=O)/C=C/CN1CC2CC(C1)O2` [Compound 166], the half-maximal inhibitory concentration (IC50) is less than 0.01 µM.

For `N#CC[C@H]1CN(c2nc(OCC34CCCN3CCC4)nc3c2CCN(c2cccc4cccc(Cl)c24)C3)CCN1C(=O)/C=C/CN1CC2CCC(C1)O2` [Compound 167], the IC50 was less than 0.01 µM.

As to `CO[C@@H]1CCN(C/C=C/C(=O)N2CCN(c3nc(OCC45CCCN4CCC5)nc4c3CCN(c3cccc5cccc(Cl)c35)C4)C[C@@H]2CC#N)C1` [Compound 173], the IC50 is less than 0.01 µM.

For `N#CC[C@H]1CN(c2nc(OCC34CCCN3CCC4)nc3c2CCN(c2cccc4cccc(Cl)c24)C3)CCN1C(=O)/C=C/CN1CC[C@H](F)C1` [Compound 174], the IC50 was less than 0.01 µM.

As for `N#CC[C@H]1CN(c2nc(OCC34CCCN3CCC4)nc3c2CCN(c2cccc4cccc(Cl)c24)C3)CCN1C(=O)/C=C/CN1CC[C@@H](F)C1` [Compound 175], the IC50 is less than 0.01 µM.

For `N#CC[C@H]1CN(c2nc(OCC34CCCN3CCC4)nc3c2CCN(c2cccc4cccc(Cl)c24)C3)CCN1C(=O)/C=C/CN1CCC(F)(F)C1` [Compound 176], the IC50 lay within 0.01 to 0.1 µM.

Turning to `N#CC[C@H]1CN(c2nc(OCC34CCCN3CCC4)nc3c2CCN(c2cccc4cccc(Cl)c24)C3)CCN1C(=O)/C=C/CN1CC(F)(F)C1` [Compound 177], the IC50 lay in the range of 0.01 to 0.1 µM.
